Literature values in patent US20220401378A1, “COMPOSITIONS COMPRISING FUNCTIONAL FRAGRANCES AND CANNABIS-DERIVED COMPOUNDS” (THIS WORKS PRODUCTS LIMITED, priority 2020, published 2022).

Tested on: anxiety

Row | SMILES | effectiveness in reducing anxiety compared with trazodone hydrochloride
1 | C=C[C@](C)(O)CCC=C(C)C [R-(−)-linalool] | as effective as the trazodone hydrochloride in reducing anxiety
2 | C=C[C@@](C)(O)CCC=C(C)C [S-(+)-linalool] | as effective as the trazodone hydrochloride in reducing anxiety
